Experimental data from US20070255356A1, “PHOTODI[…] DEVICES AND METHODS” (Ondine International, Ltd., priority 2006, published 2007).

What was measured:
MRSA [1] = assay: photodisinfection of MRSA biofilms in vitro (Periowave laser); type: cell-based, Methicillin-resistant Staphylococcus aureus
Excerpt: (§1) Photodisinfection treatments using methods contemplated by the present invention have been tested against MRSA, Escherichia coli (E. coli), and Enterococcus fecalis (E. fecalis) in vitro and reached high levels of disinfection in within seconds to one minute. Photosensitizing composition comprising of methylene blue at various concentrations ranging from about 0.005 wt % to 0.1 wt % was applied to biofilms of MRSA, E. coli and E. fecalis for about ten seconds. These biofilms were then illuminated by a laser light system at a wavelength of about 665 nm to about 675 nm for a period from about 0 seconds to about 60 seconds (e.g., accumulated energy level of about 0 J/cm^2 to about 9 J/cm^2). The laser light system used was the Periowave™ system which includes a low-intensity laser with power at about 240 mW and the optical probe described in PCT Patent Publication No. WO2006115761.

E. fecalis = assay: photodisinfection of E. fecalis biofilms in vitro (Periowave laser); type: cell-based, Enterococcus fecalis; details: methylene blue and a low power laser
Excerpt: as §1

E. coli [2] = assay: SEM evaluation of E. coli biofilms after photodisinfection; type: cell-based, Escherichia coli; details: about 0.1 wt % methylene blue, about 10 seconds contact, 665-675 nm, about 30 seconds
Procedure: (§2) Biofilms heavily colonized with one to three layers of Escherichia coli (E. coli) organisms were contacted with a photosensitizing composition comprising methylene blue at a concentration of about 0.1 wt % for about 10 seconds and then illuminated at a wavelength of about 665 nm to about 675 nm for a period from about 30 seconds using the Periowave™ laser. Thereafter, these biofilms and the controlled E. coli biofilms (e.g., no photodisinfection treatment) were incubated for three hours in 0.9% saline and then fixed in 10% Formalin for scanning electron microscope (SEM) evaluation.

otitis externa [3] = assay: photodisinfection of otitis externa treatment site (Examples V to VII); type: in vivo
Procedure: A photosensitizing composition comprising of methylene blue at a concentration of about 0.1 wt % is applied to the otitis externa treatment site. Light at a wavelength range from about 650 nm to about 680 nm is applied to the photosensitizing composition located within the otitis externa treatment site for a period from about 6 minutes to about 10 minutes using a laser with power at about 80 mW. The otitis externa was ameliorated.
A photosensitizing composition comprising of methylene blue at a concentration range of from about 0.001 wt % to about 0.1 wt % is applied to the otitis externa treatment site. Light at a wavelength range from about 650 nm to about 680 nm is applied to the photosensitizing composition located within the treatment site for a period from about 1 minute to about 20 minutes using a laser with power at a range from about 50 mW to about 300 mW. The otitis externa was ameliorated.
A photosensitizing composition comprising of toluidine blue at a concentration range of from about 0.001% wt % to about 0.1 wt % is applied to the otitis externa treatment site. Light at a wavelength range from about 620 nm to about 650 nm is applied to the photosensitizing composition located within the otitis externa treatment site for a period from about 1 minute to about 20 minutes using a laser with power at a range from about 50 mW to about 300 mW. The otitis externa was ameliorated.
For Examples V to VII, it was shown that there is a general inverse relationship between (1) the photosensitizer concentration and (2) the photodisinfection treatment time and/or the amount of power required for the light source. For example, higher concentration of photosensitizer requires less treatment time and/or lower light source power. Conversely, lower concentration of photosensitizer requires longer treatment time and/or higher light source power. Also, less treatment time requires higher concentration of photosensitizer and/or higher light source power.

E. coli [4] = assay: photodisinfection of E. coli biofilms in vitro (Periowave laser); type: cell-based, Escherichia coli
Excerpt: as §1

MRSA [5] = assay: SEM evaluation of MRSA biofilms after photodisinfection; type: cell-based, Methicillin-resistant Staphylococcus aureus; details: about 0.1 wt % methylene blue, about 10 seconds contact, 665-675 nm, about 30 seconds
Procedure: as §2, with “four” for “three”, “MRSA” for “Escherichia coli (E. coli)”, “MRSA” for “E. coli”, “overnight” for “for three hours”, “0.9 wt %” for “0.9%”, “10 wt %” for “10%”

otitis externa [6] = assay: study on patients suffering otitis externa (photodisinfection, Periowave laser); type: in vivo, human; details: about 0.01 wt % methylene blue by cotton swab, 665-675 nm, about 3 to 5 minutes (3-5 one minute cycles); many patients
Procedure: A study was conducted on patients suffering otitis externa. During the study, a photosensitizing composition comprising of methylene blue at a concentration of about 0.01 wt % was applied using a cotton swab to the treatment site as shown in FIG. 37. Thereafter and referring to FIGS. 38-39, light at a wavelength range from about 665 nm to about 675 nm was applied to the photosensitizing composition located within the treatment site 64 for a period from about 3 minutes to about 5 minutes (3-5 repetitive one minute cycles) using the Periowave™ laser light system.

[7] = at least 0.02 wt % methylene blue, about ten seconds contact, about 665-675 nm laser about 240 mW for at least 15 seconds (at least 2.25 J/cm^2)
[8] = methylene blue and a low power laser

Structure (SMILES) | reduction of MRSA (MRSA [1]; [7]) | elimination of MRSA by photodisinfection (MRSA [1]; [8]) | elimination of E. Fecalis by photodisinfection (E. fecalis) | reduction of E. coli in SEM photograph (FIG. 36 vs FIG. 35) (E. coli [2]) | outcome of otitis externa (otitis externa [3]; Example V: about 0.1 wt %, 650-680 nm, about 6 to 10 minutes, laser about 80 mW) | outcome of otitis externa (otitis externa [3]; Example VI: about 0.001 to 0.1 wt %, 650-680 nm, about 1 to 20 minutes, laser about 50 to 300 mW) | reduction of E. coli (E. coli [4]; [7]) | elimination of E. coli by photodisinfection (E. coli [4]; [8]) | reduction of MRSA in SEM photograph (FIG. 34 vs FIG. 33) (MRSA [5]) | outcome of otitis externa (otitis externa [6]) | outcome of otitis externa (otitis externa [3]; Example VII: about 0.001 to 0.1 wt %, 620-650 nm, about 1 to 20 minutes, laser about 50 to 300 mW)
CN(C)c1ccc2nc3ccc(=[N+](C)C)cc-3sc2c1 [methylene blue] | at least three | effectively eliminated | effectively eliminated | substantial reduction of E. coli | ameliorated | ameliorated | at least three | effectively eliminated | substantial reduction of MRSA | ameliorated | 
Cc1cc2nc3ccc(N(C)C)cc3[s+]c2cc1N.[Cl-] [toluidine blue] |  |  |  |  |  |  |  |  |  |  | ameliorated
